Experimental findings from US12162858B2, “Quinoline derivatives as inhibitors of AXL/MER RTK and CSF1R” (QURIENT CO., LTD., priority 2018, dated 2024) are described below.

For orientation: IC50 means the concentration that gives 50% inhibition. A higher IC50 goes with weaker potency.

Some results are limits rather than exact numbers.

In this experiment the target is CSF1R (Homo sapiens, UniProt P07333). Description: Cellular CSF1R inhibition ELISA (p-CSF1R, M-CSF-induced) using THP-1 cells. The arrangement: THP-1 cells act as a model for human monocytes; endogenous in cells; host or cells: THP-1. The format is cell-based. The text has this: The normal proto-oncogene c-fms encodes the macrophage growth factor (M-CSF, also known as CSF1) receptor involved in growth, survival, and differentiation along the monocyte-macrophage lineage. THP-1 cells act as a model for human monocytes. It confirms that an increased phosphorylation of CSF1R (p-CSF1R) can be observed, when induced by CSF1R ligand, CSF1.
Sequence of CSF1R (P07333 20-972): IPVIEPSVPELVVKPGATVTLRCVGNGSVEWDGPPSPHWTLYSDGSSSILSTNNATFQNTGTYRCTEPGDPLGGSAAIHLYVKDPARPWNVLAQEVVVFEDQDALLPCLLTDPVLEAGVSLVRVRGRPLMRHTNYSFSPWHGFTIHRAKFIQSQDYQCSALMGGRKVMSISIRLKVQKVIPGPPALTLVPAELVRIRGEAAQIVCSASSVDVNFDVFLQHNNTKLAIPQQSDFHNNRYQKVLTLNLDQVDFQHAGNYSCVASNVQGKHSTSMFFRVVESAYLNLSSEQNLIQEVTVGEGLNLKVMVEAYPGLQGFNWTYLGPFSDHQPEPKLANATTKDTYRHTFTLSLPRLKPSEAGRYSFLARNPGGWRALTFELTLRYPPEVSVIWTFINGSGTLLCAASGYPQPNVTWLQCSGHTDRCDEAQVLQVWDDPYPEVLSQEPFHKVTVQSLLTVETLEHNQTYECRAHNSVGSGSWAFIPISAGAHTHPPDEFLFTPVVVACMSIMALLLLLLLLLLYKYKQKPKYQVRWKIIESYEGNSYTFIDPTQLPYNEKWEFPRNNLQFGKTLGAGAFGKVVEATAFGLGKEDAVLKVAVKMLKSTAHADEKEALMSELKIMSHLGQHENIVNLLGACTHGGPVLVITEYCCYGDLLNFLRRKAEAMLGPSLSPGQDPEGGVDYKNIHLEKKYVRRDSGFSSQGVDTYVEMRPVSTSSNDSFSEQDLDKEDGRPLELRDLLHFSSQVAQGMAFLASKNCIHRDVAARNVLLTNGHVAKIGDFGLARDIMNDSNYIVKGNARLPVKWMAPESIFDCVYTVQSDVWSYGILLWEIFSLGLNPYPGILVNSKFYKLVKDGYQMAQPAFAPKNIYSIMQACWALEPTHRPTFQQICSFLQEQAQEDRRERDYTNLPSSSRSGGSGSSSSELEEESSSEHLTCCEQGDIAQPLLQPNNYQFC
The THP-1 cells should be maintained from 5×10^5 to 1×10^6 cells/ml in the cell culture flask. After centrifugation, the supernatant is aspirated. The cell pellet is re-suspended with pre-warmed growth medium (RPMI1640, 10% FBS, 0.05 mM 2-Mercaptoethanol) and cells are separated by pipetting 6 times up and down with a 10 ml serological pipette. The cell suspension has to be diluted to a final concentration of 2×10^5 cells per 80 μl with pre-warmed growth medium. 80 μl of cell suspension is added to all wells of plates. Cell-plates are incubated at 37° C./5% CO2. Dissolve compound in 100% DMSO to make 10 mM stock solutions (Aliquots stored in the Nitrogen Cabinet). Dilute 10 mM compounds solutions for 2-fold in 100% DMSO to get 5 mM solutions (10 μl+10 μl DMSO), and then make a 3-fold serial dilution (10 μl+20 μl DMSO) for 10 doses. For reference compounds: Dilute 10 mM compounds solutions for 20-fold in 100% DMSO to get 0.5 mM solutions (2 μl+38 μl DMSO), and then make a 3-fold serial dilution (10 μl+20 μl DMSO) for 10 doses. Transfer 2 μl diluted compounds to 198 μl medium to get solution of 50 μM concentration at top point for compounds and 5 μM for reference compounds. Then transfer 20 μl cpd solution into assay plate (Duplicate wells). The plate is incubated at 37° C./5% CO2 for 24 h. The final concentration of DMSO in all wells is […]. Reconstitute human M-CSF at 50 μg/ml in sterile water. (Aliquots stored in −80° C.). 1:1000 dilute human M-CSF by fresh medium to 50 ng/ml. After 24 h compounds treatment, transfer 25 μl diluted human M-CSF (50 ng/ml) to cell plate according to the plate map. The final concentration of human M-CSF in all wells is 10 ng/ml.
The plates is incubated at 37° C./5% CO2 for 5 min. In the beginning the appropriate amount of lysis buffer complete (100 μL/well) is prepared and stored on ice. After 5 min human M-CSF stimulation, wash plates once with 300 μL ice cold PBS. Then 100 μl lysis buffer is added to each well. The plate is shacked for 40 min at 4° C. Plates can now be stored at −20° C. After equilibrate the micro-well strips at room temperature, break off the required number of micro-wells. Place the micro-wells in the strip holder. Unused micro-wells must be resealed and stored at 4° C. immediately. Add 90 μl of cell lysate to the appropriate well. Seal with tape and press firmly onto top of micro-wells. Incubate the plate for 2 h at 37° C. Gently remove the tape and wash wells 4 times with 1× Wash Buffer, 200 μl each time for each well. Add 100 μl of reconstituted Detection Antibody (green color) to each well. Seal with tape and incubate the plate at 37° C. for 1 h. Repeat wash procedure. Add 100 μl of reconstituted HRP-Linked secondary antibody to each well. Seal with tape and incubate the plate for 30 min at 37° C. Repeat wash procedure. Add 100 μl of TMB Substrate to each well. Seal with tape and incubate the plate for 10 min at 37° C. or 30 min at 25° C. Calculations and Formulas: The following calculations and formulas are used for data analysis using XL Fit software: The curve fitting was made using the Sigmoidal Dose-Response Model (Fit model, 205).
On the technique in general: In an ELISA, binding on a coated surface is turned into a signal by an enzyme label.
As for `COc1cc2nccc(Oc3ccc(NC(=O)c4nn(C5CC5)cc4OCCF)nc3)c2cc1OC` [Compound 110], the IC50 was less than 500 nM. Take `COc1cc2nccc(Oc3ccc(NC(=O)c4nn(C5CC5)cc4OC(C)C)nn3)c2cc1OC` [Compound 147]: the IC50 fell in the range of 500 to 1000 nM. Under `CNCCn1cc(OCC(F)(F)F)c(C(=O)Nc2ccc(Oc3ccnc4cc(OC)c(OC)cc34)c(C)c2)n1` [Compound 156] stands no less than 1000 nM; under `CCCn1cc(OCC2COC2)c(C(=O)Nc2ccc(Oc3ccnc4cc(OC)c(OC)cc34)cn2)n1` [Compound 106], less than 500 nM. As for `CCCn1cc(OCC2CCOCC2)c(C(=O)Nc2ccc(Oc3ccnc4cc(OC)c(OC)cc34)cn2)n1` [Compound 164], the figure is no less than 1000 nM.

As for `CNCCn1cc(OCC(F)(F)F)c(C(=O)Nc2ccc(Oc3ccnc4cc(OC)c(OC)cc34)cc2F)n1` [Compound 154], the IC50 was no less than 1000 nM.

`COc1cc2nccc(Oc3ccc(NC(=O)c4nn(C5CC5)cc4NCCC(F)(F)F)nc3)c2cc1OC` [Compound 142] registered an IC50 of less than 500 nM. As for `COc1cc2nccc(Oc3ccc(NC(=O)c4nn(CCOC5CC5)cc4OCC(F)(F)F)cc3)c2cc1OC` [Compound 118], the figure is 500 to 1000 nM. As for `COc1cc2nccc(Oc3ccc(NC(=O)c4nn(CCOC5CC5)cc4OCC(F)(F)F)c(F)c3)c2cc1OC` [Compound 115], the figure is 500 to 1000 nM. As to `COc1cc2nccc(Oc3ccc(NC(=O)c4nn(CCOC5CC5)cc4OCC(F)(F)F)cc3F)c2cc1OC` [Compound 116], the IC50 lay within 500 to 1000 nM. For `CCn1cc(OCC(F)(F)F)c(C(=O)Nc2ccc(Oc3ccnc4cc(OC)c(OC)cc34)cn2)n1` [Compound 4], the IC50 is less than 500 nM. Take `COc1cc2nccc(Oc3ccc(NC(=O)c4nn(C5CCN(C)C5)cc4OCC(F)(F)F)cc3C)c2cc1OC` (centres unmarked) [Compound 98]: the IC50 was no less than 1000 nM. In the case of `COc1cc2nccc(Oc3ccc(NC(=O)c4nn(C5CCCC5)cc4OCC(F)(F)F)nn3)c2cc1OC` [Compound 121], the IC50 was less than 500 nM. Turning to `COc1cc2nccc(Oc3ccc(NC(=O)c4nn(C5CC5)cc4NCC(F)(F)F)nc3)c2cc1OC` [Compound 145], the IC50 was less than 500 nM.

On to `CCCn1cc(OCC(F)(F)F)c(C(=O)Nc2ccc(Oc3ccnc4cc(OC)c(OC)cc34)c(C(F)(F)F)c2)n1` [Compound 114], for which the IC50 is no less than 1000 nM. Under `COc1cc2nccc(Oc3ccc(NC(=O)c4nn(CC(C)C)cc4OCC(F)(F)F)cn3)c2cc1OC` [Compound 103] stands no less than 1000 nM; under `COc1cc2nccc(Oc3ccc(NC(=O)c4nn(CCN)cc4OCC(F)(F)F)cn3)c2cc1OC` [Compound 135], no less than 1000 nM; under `COc1cc2nccc(Oc3ccc(NC(=O)c4nn(CC5COC5)cc4OCC(F)(F)F)cc3F)c2cc1OC` [Compound 97], no less than 1000 nM. Under `COc1cc2nccc(Oc3ccc(NC(=O)c4nn(CC(C)O)cc4OCCF)nc3)c2cc1OC` (centres unmarked) [Compound 152] stands less than 500 nM; under `COc1cc2nccc(Oc3ccc(NC(=O)c4nn(C5CCOC5)cc4OCC(F)(F)F)nn3)c2cc1OC` (centres unmarked) [Compound 128], less than 500 nM.

With `COc1cc2nccc(Oc3ccc(NC(=O)c4nn(C5CC5)cc4OCC(F)F)nn3)c2cc1OC` [Compound 162], the IC50 was less than 500 nM. Compound `COc1cc2nccc(Oc3ccc(NC(=O)c4nn(C5CCN(C)C5)cc4OCC(F)(F)F)cn3)c2cc1OC` (centres unmarked) [Compound 133] came in with an IC50 of no less than 1000 nM.

For `CNCCn1cc(OCC(F)(F)F)c(C(=O)Nc2ccc(Oc3ccnc4cc(OC)c(OC)cc34)c(F)c2)n1` [Compound 155], the IC50 is no less than 1000 nM. On to `COc1cc2nccc(Oc3ccc(NC(=O)c4nn(C5CCNC5)cc4OCC(F)(F)F)cn3)c2cc1OC` (centres unmarked) [Compound 132], for which the IC50 was no less than 1000 nM.

For `COc1cc2nccc(Oc3ccc(NC(=O)c4nn(C5CC5)cc4OCC4CNC4)nc3)c2cc1OC` [Compound 144], the IC50 was no less than 1000 nM. Under `COc1cc2nccc(Oc3ccc(NC(=O)c4nn(C5CC5)cc4OCC4CCC4)nn3)c2cc1OC` [Compound 149] stands no less than 1000 nM; under `COc1cc2nccc(Oc3ccc(NC(=O)c4nn(C5CCN(C)C5)cc4OCC(F)(F)F)cc3F)c2cc1OC` (centres unmarked) [Compound 96], no less than 1000 nM. Under `COCCOc1cn(CC(C)O)nc1C(=O)Nc1ccc(Oc2ccnc3cc(OC)c(OC)cc23)cn1` (centres unmarked) [Compound 150] stands no less than 1000 nM; under `COc1cc2nccc(Oc3ccc(NC(=O)c4nn(CC(C)O)cc4OCC4CCC4)nc3)c2cc1OC` (centres unmarked) [Compound 163], 500 to 1000 nM.

On to `CNCCn1cc(OCC(F)(F)F)c(C(=O)Nc2ccc(Oc3ccnc4cc(OC)c(OC)cc34)cc2)n1` [Compound 119], for which the IC50 was no less than 1000 nM.

The compound `CCCn1cc(OCCNC)c(C(=O)Nc2ccc(Oc3ccnc4cc(OC)c(OC)cc34)cn2)n1` [Compound 140] returned an IC50 of no less than 1000 nM.

The compound `COCCOc1cn(C2CC2)nc1C(=O)Nc1ccc(Oc2ccnc3cc(OC)c(OC)cc23)cn1` [Compound 107] had an IC50 of less than 500 nM. Under `CNCCOc1cn(C2CC2)nc1C(=O)Nc1ccc(Oc2ccnc3cc(OC)c(OC)cc23)cn1` [Compound 141] stands no less than 1000 nM; under `CCCn1cc(OCC(F)(F)F)c(C(=O)Nc2ccc(Oc3ccnc4cc(OC)c(OC)cc34)cn2)n1` [Compound 7], less than 500 nM; under `COc1cc2nccc(Oc3ccc(NC(=O)c4nn(CC5COC5)cc4OCC(F)(F)F)nc3)c2cc1OC` [Compound 92], less than 500 nM. As for `COc1cc2nccc(Oc3ccc(NC(=O)c4nn(C5CC5)cc4OCC4COC4)nc3)c2cc1OC` [Compound 143], the figure is less than 500 nM; as for `COc1cc2nccc(Oc3ccc(NC(=O)c4nn(CC5COC5)cc4OCC(F)(F)F)cc3C)c2cc1OC` [Compound 99], 500 to 1000 nM; as for `COc1cc2nccc(Oc3ccc(NC(=O)c4nn(C5CCOC5)cc4OCC(F)(F)F)cn3)c2cc1OC` (centres unmarked) [Compound 138], no less than 1000 nM. As for `CCn1cc(OC(C)C)c(C(=O)Nc2ccc(Oc3ccnc4cc(OC)c(OC)cc34)cn2)n1` [Compound 6], the figure is less than 500 nM. In turn, `COc1cc2nccc(Oc3ccc(NC(=O)c4nn(C5CC5)cc4NCC(F)(F)F)nn3)c2cc1OC` [Compound 148] returned an IC50 of no less than 1000 nM. Under `COc1cc2nccc(Oc3ccc(NC(=O)c4nn(CCN)cc4OCC(F)(F)F)nn3)c2cc1OC` [Compound 125] stands no less than 1000 nM. Under `CCCn1cc(OCC2CNC2)c(C(=O)Nc2ccc(Oc3ccnc4cc(OC)c(OC)cc34)cn2)n1` [Compound 159] stands no less than 1000 nM; under `COc1cc2nccc(Oc3ccc(NC(=O)c4nn(CCO)cc4OCC(F)(F)F)cn3)c2cc1OC` [Compound 129], no less than 1000 nM.

In turn, `COc1cc2nccc(Oc3ccc(NC(=O)c4nn(CC5COC5)cc4OCC(F)(F)F)nn3)c2cc1OC` [Compound 123] had an IC50 of no less than 1000 nM. In turn, `COc1cc2nccc(Oc3ccc(NC(=O)c4nn(C)cc4OCC(F)(F)F)nn3)c2cc1OC` [Compound 102] came in with an IC50 of less than 500 nM. As for `COc1cc2nccc(Oc3ccc(NC(=O)c4nn(C5CCNC5)cc4OCC(F)(F)F)nn3)c2cc1OC` (centres unmarked) [Compound 122], the figure is no less than 1000 nM. As for `COc1cc2nccc(Oc3ccc(NC(=O)c4nn(CC(C)O)cc4OC(C)C)nc3)c2cc1OC` (centres unmarked) [Compound 151], the figure is less than 500 nM. As for `CCCn1cc(OCC(F)F)c(C(=O)Nc2ccc(Oc3ccnc4cc(OC)c(OC)cc34)cn2)n1` [Compound 12], the figure is less than 500 nM; as for `CCCn1cc(OCC(F)(F)F)c(C(=O)Nc2ccc(Oc3ccnc4cc(OC)c(OC)cc34)nc2)n1` [Compound 139], no less than 1000 nM.

The compound `COCCn1cc(OCC(F)(F)F)c(C(=O)Nc2ccc(Oc3ccnc4cc(OC)c(OC)cc34)cn2)n1` [Compound 10] returned an IC50 of less than 500 nM.
